Assay results published in ChEMBL document CHEMBL5390237, “Discovery of Selective Histone Deacetylase 1 and 2 Inhibitors: Screening of a Focused Library Constructed by Click Chemistry, Kinetic Binding Analysis, and Biological Evaluation” (J Med Chem, 2023).

biological target: Histone deacetylase 2 (Homo sapiens, UniProt Q92769); assay: Inhibition of full-length recombinant human C-terminal GST tagged HDAC2 expressed in Sf9 insect cells using aminoluciferin peptide substrate at 100 nM preincubated for 3 hrs followed by substrate addition and measured after 30 mins by HDAC-Glo I/II chemiluminescence assay; settings: time 3.5 hrs
Sequence (Q92769 whole entry): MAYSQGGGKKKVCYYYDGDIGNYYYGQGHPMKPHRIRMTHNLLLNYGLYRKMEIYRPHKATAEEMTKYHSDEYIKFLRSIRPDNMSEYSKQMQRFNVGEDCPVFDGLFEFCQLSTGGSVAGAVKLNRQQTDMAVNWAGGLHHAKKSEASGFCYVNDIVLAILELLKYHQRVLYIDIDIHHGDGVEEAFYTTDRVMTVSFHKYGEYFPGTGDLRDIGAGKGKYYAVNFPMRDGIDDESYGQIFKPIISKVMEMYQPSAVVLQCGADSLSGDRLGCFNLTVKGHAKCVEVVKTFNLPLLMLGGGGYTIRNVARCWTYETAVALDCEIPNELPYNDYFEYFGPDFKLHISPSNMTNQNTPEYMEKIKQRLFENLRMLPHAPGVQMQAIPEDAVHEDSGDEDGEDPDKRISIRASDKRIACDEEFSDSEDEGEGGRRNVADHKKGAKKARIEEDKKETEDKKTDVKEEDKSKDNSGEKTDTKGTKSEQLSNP

Row | SMILES | inhibition
1 | Nc1ccc(-c2ccccc2)cc1NC(=O)c1cn(CCN2CCc3ccccc3C2)nn1 | 0%
2 | Nc1ccc(-c2cccs2)cc1NC(=O)c1ccc(-c2cn(/C=C/c3ccccc3)nn2)cc1 | 0%
3 | Nc1ccc(-c2cccs2)cc1NC(=O)c1cn(CCc2ccccc2Cl)nn1 | 3%
4 | Nc1ccc(-c2cccs2)cc1NC(=O)c1ccc(-c2cn(CC(=O)Nc3ccc(F)cc3)nn2)cc1 | 50%
5 | Nc1ccc(-c2cccs2)cc1NC(=O)c1cccc(-c2cn(Cc3ccc(Oc4ccccc4)cc3)nn2)c1 | 0%
6 | Nc1ccc(-c2cccs2)cc1NC(=O)c1ccc(-c2cn(CCc3cccc(C(F)(F)F)c3)nn2)cc1 | 3%
7 | Nc1ccc(-c2cccs2)cc1NC(=O)c1ccc(-c2cn(CCN3CCOCC3)nn2)cc1 | 75%
8 | Nc1ccc(-c2ccsc2)cc1NC(=O)c1cn(CCc2c[nH]c3ccccc23)nn1 | 6%
9 | CCc1ccc(Cn2cc(C(=O)Nc3cc(-c4ccccc4)ccc3N)nn2)cc1 | 0%
10 | Nc1ccc(-c2ccc(F)cc2)cc1NC(=O)c1cn(-c2cccc3ccccc23)nn1 | 4%
11 | Nc1ccc(-c2ccc(F)cc2)cc1NC(=O)c1cn(Cc2ccc(C(=O)O)cc2)nn1 | 65%
12 | Nc1ccc(-c2cccs2)cc1NC(=O)c1cccc(-c2cn(Cc3nc4ccccc4[nH]3)nn2)c1 | 32%
13 | Nc1ccc(-c2ccc(F)cc2)cc1NC(=O)c1cn(CC23CC4CC(CC(C4)C2)C3)nn1 | 0%
14 | Nc1ccc(-c2cccs2)cc1NC(=O)c1ccc(-c2cn(-c3ccc(I)cc3)nn2)s1 | 0%
15 | Nc1ccc(-c2cccs2)cc1NC(=O)c1ccc(-c2cn(CC34CC5CC(CC(C5)C3)C4)nn2)cc1 | 0%
16 | Nc1ccc(-c2cccs2)cc1NC(=O)c1cccc(-c2cn(CCc3ccccn3)nn2)c1 | 33%
17 | Nc1ccc(-c2cccs2)cc1NC(=O)c1ccc(-c2cn(Cc3ccc(C(=O)O)cc3)nn2)cc1 | 42%
18 | Cc1cccc(CCn2cc(C(=O)Nc3cc(-c4ccccc4)ccc3N)nn2)c1 | 1%
19 | Cc1ccc(-n2cc(C(=O)Nc3cc(-c4cccs4)ccc3N)nn2)cc1C | 0%
20 | Nc1ccc(-c2cccs2)cc1NC(=O)CCc1cn(CCCCCc2ccccc2)nn1 | 7%
21 | Nc1ccc(-c2cccs2)cc1NC(=O)c1cccc(-c2cn(/C=C/c3ccccc3)nn2)c1 | 10%

Row | SMILES | inhibition
22 | Nc1ccc(-c2cccs2)cc1NC(=O)c1ccc(-c2cn(CCc3ccc(C(=O)O)cc3)nn2)s1 | 55%
23 | COc1ccccc1CCn1cc(CCC(=O)Nc2cc(-c3cccs3)ccc2N)nn1 | 12%
24 | Nc1ccc(-c2cccs2)cc1NC(=O)c1cn(CC(=O)c2ccccc2)nn1 | 15%
25 | Nc1ccc(-n2cc(-c3cccc(C(=O)Nc4cc(-c5cccs5)ccc4N)c3)nn2)cc1 | 30%
26 | Nc1ccc(-c2ccccc2)cc1NC(=O)c1cn(CCCCCCC(=O)O)nn1 | 0%
27 | Nc1ccc(-c2cccs2)cc1NC(=O)c1ccc(-c2cn(CCCCCC(=O)O)nn2)s1 | 54%
28 | Nc1ccc(-c2ccccc2)cc1NC(=O)c1cn(CCC23CC4CC(CC(C4)C2)C3)nn1 | 0%
29 | COc1ccc(-n2cc(-c3ccc(C(=O)Nc4cc(-c5cccs5)ccc4N)s3)nn2)cc1 | 5%
30 | Nc1ccc(-c2ccccc2)cc1NC(=O)c1cn(CCc2cccc3ccccc23)nn1 | 0%
31 | COc1ccccc1CCn1cc(C(=O)Nc2cc(-c3ccc(F)cc3)ccc2N)nn1 | 5%
32 | Nc1ccc(-c2ccc(F)cc2)cc1NC(=O)c1cn(CCCCCc2ccccc2)nn1 | 1%
33 | Nc1ccc(-c2cccs2)cc1NC(=O)c1ccc(-c2cn(CC34CC5CC(CC(C5)C3)C4)nn2)s1 | 0%
34 | Cc1cccc(CCn2cc(-c3ccc(C(=O)Nc4cc(-c5cccs5)ccc4N)cc3)nn2)c1 | 26%
35 | CCc1ccc(Cn2cc(-c3cccc(C(=O)Nc4cc(-c5cccs5)ccc4N)c3)nn2)cc1 | 0%
36 | Cc1cccc(C)c1NC(=O)Cn1cc(-c2cccc(C(=O)Nc3cc(-c4cccs4)ccc3N)c2)nn1 | 8%
37 | Nc1ccc(-c2cccs2)cc1NC(=O)c1ccc(-c2cn(CC(=O)Nc3ccc(F)cc3)nn2)s1 | 23%
38 | Nc1ccc(-c2ccc(F)cc2)cc1NC(=O)c1cn(C[S+]([O-])c2ccccc2)nn1 (configuration not stated) | 0%
39 | Nc1ccc(-c2ccccc2)cc1NC(=O)c1cn(CC23CC4CC(CC(C4)C2)C3)nn1 | 0%
40 | Nc1ccc(-c2cccs2)cc1NC(=O)c1ccc(-c2cn(CCc3ccccc3C(F)(F)F)nn2)s1 | 0%
41 | Nc1ccc(-c2cccs2)cc1NC(=O)c1ccc(-c2cn(Cc3cccc4ccccc34)nn2)s1 | 13%
42 | Nc1ccc(-c2cccs2)cc1NC(=O)c1ccc(-c2cn(-c3ccc(Br)cc3)nn2)s1 | 0%

The remaining lines, values ahead:

Row | inhibition | SMILES
43 | 19% | Cc1cccc(C)c1NC(=O)Cn1cc(CCC(=O)Nc2cc(-c3ccccc3)ccc2N)nn1
44 | 2% | Nc1ccc(-c2cccnc2)cc1NC(=O)CCc1cn(-c2ccc([N+](=O)[O-])cc2)nn1
45 | 0% | Nc1ccc(-c2ccccc2)cc1NC(=O)CCc1cn(-c2cccc3ccccc23)nn1
46 | 0% | Nc1ccc(-c2ccc(F)cc2)cc1NC(=O)CCc1cn(Cc2cccc(C(=O)O)c2)nn1
47 | 10% | Nc1ccc(-n2cc(C(=O)Nc3cc(-c4cccs4)ccc3N)nn2)cc1
48 | 0% | Nc1ccc(-c2ccsc2)cc1NC(=O)CCc1cn(-c2ccc(I)cc2)nn1
49 | 0% | Nc1ccc(-c2cccs2)cc1NC(=O)CCc1cn(Cc2cccc(-c3ccccc3)c2)nn1
50 | 0% | Nc1ccc(-c2cccs2)cc1NC(=O)c1cn(-c2ccc(I)cc2)nn1
51 | 3% | Nc1ccc(-c2cccnc2)cc1NC(=O)CCc1cn(CC(=O)c2ccccc2)nn1
52 | 42% | Nc1ccc(-c2cccs2)cc1NC(=O)c1ccc(-c2cn(CCc3ccc([N+](=O)[O-])cc3)nn2)cc1
53 | 30% | Nc1ccc(-c2cccs2)cc1NC(=O)CCc1cn(CC(=O)Nc2ccc(F)cc2)nn1
54 | 10% | COc1ccc(-n2cc(CCC(=O)Nc3cc(-c4ccc(F)cc4)ccc3N)nn2)cc1
55 | 18% | Cc1cccc(C)c1NC(=O)Cn1cc(CCC(=O)Nc2cc(-c3ccsc3)ccc2N)nn1
56 | 9% | Nc1ccc(-c2cccnc2)cc1NC(=O)CCc1cn(-c2ccccc2-c2ccccc2)nn1
57 | 17% | Nc1ccc(-c2ccc(F)cc2)cc1NC(=O)CCc1cn(CCc2cccc(Cl)c2)nn1
58 | 17% | Nc1ccc(-c2cccs2)cc1NC(=O)CCc1cn(Cc2ccc(OC(F)(F)F)cc2)nn1
59 | 8% | Nc1ccc(-c2ccc(F)cc2)cc1NC(=O)c1cn(-c2ccc([N+](=O)[O-])cc2)nn1
60 | 3% | Nc1ccc(-c2ccsc2)cc1NC(=O)CCc1cn(Cc2cc3ccccc3s2)nn1
61 | 13% | Nc1ccc(-c2cccnc2)cc1NC(=O)CCc1cn(CCc2cccc3ccccc23)nn1
62 | 22% | COc1ccc(-n2cc(C(=O)Nc3cc(-c4ccsc4)ccc3N)nn2)cc1
63 | 0% | Nc1ccc(-c2cccnc2)cc1NC(=O)CCc1cn(-c2cccc3ccccc23)nn1
64 | 0% | Cc1ccc(-n2cc(CCC(=O)Nc3cc(-c4ccccc4)ccc3N)nn2)cc1C
65 | 0% | Nc1ccc(-c2ccsc2)cc1NC(=O)CCc1cn(Cc2ccc(OC(F)(F)F)cc2)nn1
66 | 19% | Nc1ccc(-c2ccc(F)cc2)cc1NC(=O)CCc1cn(CC(=O)c2ccccc2)nn1
67 | 33% | Nc1ccc(-c2ccc(F)cc2)cc1NC(=O)CCc1cn(CCc2ccc(C(=O)O)cc2)nn1
